Common to all, as to assay type: in vivo
In series [1] the test system is Helicoverpa armigera. Put plainly: Activity of killing Helicoverpa armigera (leaf soaking method). Conditions: for Mortality: 600 ppm, third-instar larvae, corn leaf soaking, 72 hours. The method, then:
3) Activity of killing Helicoverpa armigera:Helicoverpa armigera, a normal population raised indoors. Test method: leaf soaking method. In the leaf soaking method, corn leaves are soaked in a liquid medicine prepared by acetone (600 ppm, 600 mg/L), ground and put into 24 holes after the liquid medicine is dried, one third-instar larva is inserted into each hole, 10 are used for each time, and three times are repeated, a total of 30 test insects are tested, mainly gastric toxicity and contact killing effects, and the feeding phenomenon of the larva is observed. Mortality was examined 72 hours later.

Series [2] concerns Mythimna separata Walker. The experiment in a line: Activity of killing Mythimna separata Walker (leaf dipping method). Conditions: for Mortality: 4th instar larvae, corn leaf dipping, 24 hours. The method, then: 1) Activity of killing Mythimna separata Walker: Mythimna separata Walker, a normal population raised indoors. In the leaf dipping method, corn leaves are dipped in a liquid medicine ([…]) prepared by acetone, and the 4th instar larvae are inoculated after the liquid medicine, mainly for stomach toxicity and contact killing, and the feeding phenomenon of the larvae is observed. Mortality was examined 24 hours.

Series [3] has as its system Ostrinia nubilalis Hubner. Put plainly: Activity of killing Ostrinia nubilalis Hubner (leaf soaking method). Conditions: for Mortality: 600 ppm (table), 3rd instar larvae, corn leaf dipping, 72 hours. From the text:
4) Activity of killing Ostrinia nubilalis Hubner: Ostrinia nubilalis Hubner, a normal population raised indoors. Test method: leaf soaking method. In the leaf dipping method, corn leaves are dipped in a liquid medicine prepared by acetone ([…]), 10 3rd instar larvae are inoculated into a culture dish after the liquid medicine is dried, and 30 test larvae are shared for three times, mainly gastric toxicity and contact killing effects, and the feeding phenomenon of the larvae is observed. Mortality was examined 72 hours later.

Series [4] relates to Culex pipiens pallens. Put plainly: Activity of killing Culex pipiens pallens larvae. Particulars: for Mortality: 10 ppm, 4th instar mosquito larvae in water, 24 h. As to the method: 2) Activity of killing Culexpipiens pallens larval: Culicides pallens, a normal indoor population. Weigh about 5 mg of the test compound into a penicillin vial, add 5 mL of acetone (or a suitable solvent), and shake to dissolve, i.e. 1000 μg·ml^−1 mother liquor. 0.5 mL mother liquor was removed and added into a 100 mL beaker containing […] of water. Ten 4th instar mosquito larvae were selected and poured into the beaker together with 10 mL of feeding liquid. The concentration of the liquid medicine was 10 μg·ml^−1. Place the treatment in the standard treatment room, and check the results 24 h. The blank control was an aqueous solution containing 0.5 mL of test solvent.

For `CC1CC(=O)C(C(=O)Nc2ccccc2)=C(Nc2ccccc2)C1` (centres unmarked) [compound 3b], the Mortality was determined as 15% in series [1], 35% in series [2] (600 ppm), 20% in series [3] and 70% in series [4].
The matching figures for `CC1(C)CC(=O)C(C(=O)Nc2ccccc2)=C(Nc2ccccc2)C1` [compound 3c]: 10%, 30%, 15% and 80%.
As to `CCC1CC(=O)C(C(=O)Nc2ccccc2)=C(Nc2ccccc2)C1` (centres unmarked) [compound 3d], the Mortality in series [1] worked out at 100%; in series [2] (200 ppm), 100%; in series [3], 100%; in series [4], 20%. In series [1] (concentration of 600 ppm), the “lethal rate to cotton bollworm” value worked out at 100%. For the same compound, in series [2] (concentration of 200 ppm), the “lethal rate to armyworm” value is given as 100%. The “lethal rate to Ostrinia nubilalis Hubner” value in series [3] (concentration of 600 ppm) is on record as 100%.
Take `CCCC1CC(=O)C(C(=O)Nc2ccccc2)=C(Nc2ccccc2)C1` (centres unmarked) [compound 3e]: the Mortality in series [1] turned out to be 25%; in series [2] (600 ppm), 55%; in series [3] it was 30%; in series [4] it was 100%. Further, the “lethal rate to Culex pipiens larvae” value in series [4] (concentration of 10 ppm) is given as 100%.

The record behind these values is patent US11453638B2, “Process method for producing pesticide by using carbon dioxide” (Nankai University, priority 2018, dated 2022).
